According to the OligoGym collection:
Several values for one entry are separate records, joined by “and”; a condition that tells them apart may be missing. Equal values may be shown once. HELM strings list units from the 5' end as sugar, base in round brackets, then linkage (d deoxyribose, r ribose, m 2'-O-methyl, p phosphodiester). Methylation of C is not given here. [moe] = 2'-O-(2-methoxyethyl) (MOE); [cEt] = constrained ethyl (cEt); [sp] = phosphorothioate linkage

Target: HBV
Settings: ASO

| Substance | target mRNA inhibition (HepG2, 0.07 µM) | other results |
| --- | --- | --- |
| RNA1{[moe](T)[sp].[cEt](A)[sp].d(T)[sp].d(G)[sp].d(C)[sp].d(C)[sp].d(T)[sp].d(A)[sp].d(C)[sp].d(A)[sp].d(G)[sp].d(C)[sp].[cEt](C)[sp].[moe](T)[sp].[cEt](C)[sp].[moe](C)}$$$$V2.0 | 54% and 51% | – |
| RNA1{[moe](A)[sp].[moe](C)[sp].[moe](T)[sp].[moe](A)[sp].[moe](G)[sp].d(T)[sp].d(A)[sp].d(A)[sp].d(A)[sp].d(C)[sp].d(T)[sp].d(G)[sp].d(A)[sp].d(G)[sp].[moe](C)[sp].[moe](C)[sp].[moe](A)}$$$$V2.0 | 67% and 61% | – |
| RNA1{[moe](G)[sp].[moe](A)[sp].[moe](G)[sp].[cEt](G)[sp].d(T)[sp].d(G)[sp].d(A)[sp].d(A)[sp].d(G)[sp].d(C)[sp].d(G)[sp].d(A)[sp].d(A)[sp].[cEt](G)[sp].[moe](T)[sp].[moe](G)[sp].[moe](C)}$$$$V2.0 | – | target mRNA inhibition (HepG2, 0.009375 µM): 22%; target mRNA inhibition (HepG2, 0.01875 µM): 25%; target mRNA inhibition (HepG2, 0.0375 µM): 50%; target mRNA inhibition (HepG2, 0.075 µM): 69%; target mRNA inhibition (HepG2, 0.15 µM): 76%; target mRNA inhibition (HepG2, 0.3 µM): 88% |
| RNA1{[moe](G)[sp].[moe](A)[sp].[moe](A)[sp].d(G)[sp].d(C)[sp].d(G)[sp].d(A)[sp].d(A)[sp].d(G)[sp].d(T)[sp].d(G)[sp].d(C)[sp].[moe](A)[sp].[moe](C)[sp].[moe](A)[sp].[moe](C)[sp].[moe](G)}$$$$V2.0 | 76% and 60% | – |
| RNA1{[moe](C)[sp].[cEt](T)[sp].[cEt](G)[sp].d(G)[sp].d(A)[sp].d(G)[sp].d(C)[sp].d(C)[sp].d(A)[sp].d(C)[sp].d(C)[sp].d(A)[sp].d(G)[sp].[cEt](C)[sp].[cEt](A)[sp].[moe](G)}$$$$V2.0 | 60% and 45% | – |
| RNA1{[moe](C)[sp].[moe](A)[sp].[moe](G)[sp].[moe](A)[sp].[moe](G)[sp].[moe](G)[sp].d(T)[sp].d(G)[sp].d(A)[sp].d(A)[sp].d(G)[sp].d(C)[sp].d(G)[sp].d(A)[sp].d(A)[sp].[moe](G)[sp].[moe](T)}$$$$V2.0 | 81% and 58% | – |
| RNA1{[moe](A)[sp].[moe](G)[sp].[moe](A)[sp].[moe](A)[sp].d(G)[sp].d(T)[sp].d(C)[sp].d(C)[sp].d(A)[sp].d(C)[sp].d(C)[sp].d(A)[sp].d(C)[sp].[moe](G)[sp].[moe](A)[sp].[moe](G)[sp].[moe](T)}$$$$V2.0 | 32% and 20% | – |
| RNA1{[moe](A)[sp].[moe](T)[sp].[moe](G)[sp].[moe](A)[sp].[moe](G)[sp].d(G)[sp].d(C)[sp].d(A)[sp].d(T)[sp].d(A)[sp].d(G)[sp].d(C)[sp].d(A)[sp].d(G)[sp].[moe](C)[sp].[moe](A)[sp].[moe](G)}$$$$V2.0 | 50% and 44% | – |
| RNA1{[moe](A)[sp].[cEt](A)[sp].[cEt](G)[sp].d(A)[sp].d(T)[sp].d(G)[sp].d(A)[sp].d(G)[sp].d(G)[sp].d(C)[sp].d(A)[sp].d(T)[sp].d(A)[sp].[cEt](G)[sp].[cEt](C)[sp].[moe](A)}$$$$V2.0 | 64% and 62% | – |
| RNA1{[moe](C)[sp].[moe](A)[sp].[moe](G)[sp].[moe](A)[sp].d(G)[sp].d(G)[sp].d(T)[sp].d(G)[sp].d(A)[sp].d(A)[sp].d(G)[sp].d(C)[sp].d(G)[sp].[moe](A)[sp].[moe](A)[sp].[moe](G)}$$$$V2.0 | 47% and 50% | – |
| RNA1{[moe](A)[sp].[moe](C)[sp].d(T)[sp].d(A)[sp].d(G)[sp].d(T)[sp].d(A)[sp].d(A)[sp].d(A)[sp].d(C)[sp].d(T)[sp].[moe](G)[sp].[moe](A)[sp].[moe](G)[sp].[moe](C)[sp].[moe](C)[sp].[moe](A)}$$$$V2.0 | 61% | – |
| RNA1{[moe](A)[sp].[moe](T)[sp].[moe](G)[sp].[moe](A)[sp].[moe](G)[sp].d(G)[sp].d(C)[sp].d(A)[sp].d(T)[sp].d(A)[sp].d(G)[sp].d(C)[sp].d(A)[sp].d(G)[sp].[moe](C)[sp].[moe](A)}$$$$V2.0 | 52% and 56% | – |
| RNA1{[moe](G)[sp].[moe](G)[sp].d(C)[sp].d(A)[sp].d(T)[sp].d(A)[sp].d(G)[sp].d(C)[sp].d(A)[sp].d(G)[sp].d(C)[sp].[moe](A)[sp].[moe](G)[sp].[moe](G)[sp].[moe](A)[sp].[moe](T)[sp].[moe](G)}$$$$V2.0 | 55% and 48% | – |
| RNA1{[moe](C)[sp].[moe](A)[sp].[moe](A)[sp].[moe](T)[sp].d(T)[sp].d(T)[sp].d(A)[sp].d(T)[sp].d(G)[sp].d(C)[sp].d(C)[sp].d(T)[sp].d(A)[sp].[moe](C)[sp].[moe](A)[sp].[moe](G)[sp].[moe](C)}$$$$V2.0 | 34% and 25% | – |
| RNA1{[moe](G)[sp].[moe](A)[sp].[moe](G)[sp].d(A)[sp].d(A)[sp].d(G)[sp].d(T)[sp].d(C)[sp].d(C)[sp].d(A)[sp].d(C)[sp].d(C)[sp].[moe](A)[sp].[moe](C)[sp].[moe](G)[sp].[moe](A)[sp].[moe](G)}$$$$V2.0 | 31% and 28% | – |
| RNA1{[moe](A)[sp].[moe](A)[sp].[moe](G)[sp].d(T)[sp].d(C)[sp].d(C)[sp].d(A)[sp].d(C)[sp].d(C)[sp].d(A)[sp].d(C)[sp].d(G)[sp].d(A)[sp].[cEt](G)[sp].[cEt](T)[sp].[cEt](C)}$$$$V2.0 | 19% and 25% | – |
| RNA1{[moe](A)[sp].[moe](A)[sp].[moe](C)[sp].[moe](C)[sp].[moe](A)[sp].d(C)[sp].d(T)[sp].d(G)[sp].d(A)[sp].d(A)[sp].d(C)[sp].d(A)[sp].d(A)[sp].d(A)[sp].[moe](T)[sp].[moe](G)[sp].[moe](G)}$$$$V2.0 | 55% and 52% | – |
| RNA1{[moe](G)[sp].[moe](A)[sp].[moe](T)[sp].[moe](G)[sp].d(A)[sp].d(G)[sp].d(G)[sp].d(C)[sp].d(A)[sp].d(T)[sp].d(A)[sp].d(G)[sp].d(C)[sp].[moe](A)[sp].[moe](G)[sp].[moe](C)}$$$$V2.0 | 34% and 35% | – |
| RNA1{[moe](A)[sp].[moe](G)[sp].[moe](T)[sp].[moe](T)[sp].[moe](C)[sp].d(C)[sp].d(G)[sp].d(C)[sp].d(A)[sp].d(G)[sp].d(T)[sp].d(A)[sp].d(T)[sp].d(G)[sp].[moe](G)[sp].[moe](A)}$$$$V2.0 | 61% and 40% | – |
| RNA1{[moe](C)[sp].[cEt](A)[sp].[cEt](G)[sp].d(C)[sp].d(A)[sp].d(A)[sp].d(A)[sp].d(C)[sp].d(A)[sp].d(C)[sp].d(T)[sp].d(T)[sp].d(G)[sp].[cEt](G)[sp].[cEt](C)[sp].[moe](A)}$$$$V2.0 | 62% and 61% | – |
| RNA1{[moe](A)[sp].[moe](C)[sp].[moe](G)[sp].d(T)[sp].d(G)[sp].d(C)[sp].d(A)[sp].d(G)[sp].d(A)[sp].d(G)[sp].d(G)[sp].d(T)[sp].[moe](G)[sp].[moe](A)[sp].[moe](A)[sp].[moe](G)}$$$$V2.0 | 51% and 35% | – |
| RNA1{[moe](T)[sp].[moe](T)[sp].d(T)[sp].d(A)[sp].d(T)[sp].d(G)[sp].d(C)[sp].d(C)[sp].d(T)[sp].d(A)[sp].d(C)[sp].[moe](A)[sp].[moe](G)[sp].[moe](C)[sp].[moe](C)[sp].[moe](T)}$$$$V2.0 | 46% and 47% | – |
| RNA1{[moe](A)[sp].[moe](G)[sp].[moe](A)[sp].[moe](G)[sp].[moe](A)[sp].d(A)[sp].d(G)[sp].d(T)[sp].d(C)[sp].d(C)[sp].d(A)[sp].d(C)[sp].d(C)[sp].d(A)[sp].[moe](C)[sp].[moe](G)[sp].[moe](A)}$$$$V2.0 | 28% and 27% | – |
| RNA1{[moe](G)[sp].[moe](T)[sp].[moe](G)[sp].[moe](A)[sp].d(A)[sp].d(G)[sp].d(C)[sp].d(G)[sp].d(A)[sp].d(A)[sp].d(G)[sp].d(T)[sp].d(G)[sp].[moe](C)[sp].[moe](A)[sp].[moe](C)[sp].[moe](A)}$$$$V2.0 | 72% and 62% | – |
| RNA1{[moe](T)[sp].[moe](T)[sp].[moe](T)[sp].d(A)[sp].d(T)[sp].d(G)[sp].d(C)[sp].d(C)[sp].d(T)[sp].d(A)[sp].d(C)[sp].d(A)[sp].d(G)[sp].[cEt](C)[sp].[cEt](C)[sp].[cEt](T)}$$$$V2.0 | 45% and 55% | – |
| RNA1{[moe](T)[sp].[cEt](C)[sp].[cEt](C)[sp].d(A)[sp].d(C)[sp].d(C)[sp].d(A)[sp].d(C)[sp].d(G)[sp].d(A)[sp].d(G)[sp].d(T)[sp].d(C)[sp].[cEt](T)[sp].[cEt](A)[sp].[moe](G)}$$$$V2.0 | 54% and 44% | – |
| RNA1{[moe](A)[sp].[cEt](G)[sp].[cEt](A)[sp].d(T)[sp].d(G)[sp].d(A)[sp].d(G)[sp].d(G)[sp].d(C)[sp].d(A)[sp].d(T)[sp].d(A)[sp].d(G)[sp].[cEt](C)[sp].[cEt](A)[sp].[moe](G)}$$$$V2.0 | 59% and 56% | – |
| RNA1{[moe](A)[sp].[moe](G)[sp].[moe](T)[sp].d(T)[sp].d(C)[sp].d(C)[sp].d(G)[sp].d(C)[sp].d(A)[sp].d(G)[sp].d(T)[sp].d(A)[sp].[moe](T)[sp].[moe](G)[sp].[moe](G)[sp].[moe](A)[sp].[moe](T)}$$$$V2.0 | 60% and 64% | – |
| RNA1{[moe](G)[sp].[moe](T)[sp].[moe](G)[sp].[moe](A)[sp].[moe](A)[sp].d(G)[sp].d(C)[sp].d(G)[sp].d(A)[sp].d(A)[sp].d(G)[sp].d(T)[sp].d(G)[sp].d(C)[sp].[moe](A)[sp].[moe](C)[sp].[moe](A)}$$$$V2.0 | 77% and 75% | target mRNA inhibition (HepG2, 0.0092593 µM): 0%; target mRNA inhibition (HepG2, 0.0277778 µM): 4%; target mRNA inhibition (HepG2, 0.0833333 µM): 32%; target mRNA inhibition (HepG2, 0.25 µM): 62% |
| RNA1{[moe](G)[sp].[moe](C)[sp].d(A)[sp].d(T)[sp].d(A)[sp].d(G)[sp].d(C)[sp].d(A)[sp].d(G)[sp].d(C)[sp].d(A)[sp].[moe](G)[sp].[moe](G)[sp].[moe](A)[sp].[moe](T)[sp].[moe](G)}$$$$V2.0 | 39% and 24% | – |
